Patent publication US9169270B2, “1-phenyl-substituted heterocyclyl derivatives and their use as prostaglandin D2 receptor modulators” (Actelion Pharmaceuticals Ltd., priority 2012, dated 2015)

Biological target: hCRTH2 receptor (Homo sapiens (Human), UniProt Q9Y5Y4)
Assay: hCRTH2 receptor membranes radioligand (3H-PGD2) displacement assay
Conditions: hCRTH2 membrane fragments, Binding-Buffer with 0.1% BSA
Experimental: Biological Assays: Preparation of hCRTH2 Receptor Membranes and Radioligand Displacement Assay:
First, recombinant HEK293-hCRTH2 cells were detached from culture plates into 5 ml buffer A/plate (Buffer A: 5 mM Tris, 1 mM MgCl2-6H2O pH=7.4) using a rubber policeman. Cells were then transferred into centrifugation tubes and centrifuged for 5 min at 400 g. The cell pellet was resuspended in the same buffer and tubes were frozen at −80° C. Cells were thawed and membrane fragments were generated by homogenization using a polytron homogenizer (30 seconds). The membrane fragments were then centrifuged at 3000 g for 20 minutes and resuspended in buffer C (Buffer C: 75 mM Tris, 25 mM MgCl2, 250 mM Saccharose pH 7.4). Aliquots of membrane fragments were stored at −20° C.
Binding assay was performed in a final assay volume of 250 μl. First, 25 μl of test compound, previously diluted in Binding-Buffer (Binding-Buffer: 50 mM Tris-Base, 100 mM NaCl, 1 mM EDTA, 0.1% BSA (protease free), 0.01% NaN3, 10 mM MnCl2, pH 7.0) was placed into each well. […] Binding assay was started by addition of 100 μl CRTH2 membrane fragments, reaching a final concentration of 20 μg/well. For non-specific binding, PGD2 was added to the reaction mixture to […] final concentration. This assay mix was incubated for 90 minutes at room temperature and then filtered through a GF/C filter 96-well plate which was pre-soaked for 3 hours in 0.5% polyethyleneimine (PEI). The filter-wells were washed three times with ice cold Binding-Buffer. Then, 40 μl of Microscint-40 (Packard) was added to each well and the retained radioactivity quantified in a Topcount (Packard).

Chain of hCRTH2 receptor (Q9Y5Y4 whole entry): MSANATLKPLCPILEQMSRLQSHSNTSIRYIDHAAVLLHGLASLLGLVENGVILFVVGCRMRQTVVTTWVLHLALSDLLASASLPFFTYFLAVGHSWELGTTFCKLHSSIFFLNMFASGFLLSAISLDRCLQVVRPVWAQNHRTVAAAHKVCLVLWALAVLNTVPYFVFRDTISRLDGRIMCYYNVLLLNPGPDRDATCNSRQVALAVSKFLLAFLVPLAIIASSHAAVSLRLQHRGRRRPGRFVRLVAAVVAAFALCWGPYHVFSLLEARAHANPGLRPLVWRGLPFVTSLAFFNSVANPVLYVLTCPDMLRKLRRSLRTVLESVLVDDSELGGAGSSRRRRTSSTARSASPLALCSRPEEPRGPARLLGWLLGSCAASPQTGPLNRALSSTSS

Row | IC50 [nM] | Structure (SMILES)
1 | 355 | C[C@@H](CC(=O)N1CCc2ncsc2C1c1cc(Cl)ccc1OCC(=O)O)c1ccccc1 (mixture of isomers) [Example 35, (±)-{4-Chloro-2-[5-((S)-3-phenyl-butyryl)-4,5,6,7-tetrahydro-thiazolo[5,4-c]pyridin-4-yl]-phenoxy}-acetic acid]
2 | 1.2 | O=C(O)COc1ccc(Cl)cc1C1c2scnc2CCN1C(=O)OCc1cccc(Cl)c1Cl (racemic) [Example 81, (±)-4-(2-Carboxymethoxy-5-chloro-phenyl)-6,7-dihydro-4H-thiazolo[5,4-c]pyridine-5-carboxylic acid 2,3-dichloro-benzyl ester]
3 | 8.3 | O=C(O)COc1ccc(F)cc1C1c2scnc2CCN1C(=O)OCc1ccccc1 (racemic) [Example 118, (±)-4-(2-Carboxymethoxy-5-fluoro-phenyl)-6,7-dihydro-4H-thiazolo[5,4-c]pyridine-5-carboxylic acid benzyl ester]
4 | 4.2 | O=C(O)COc1ccc(Cl)cc1[C@@H]1c2scnc2CCN1C(=O)OCC1CCC1 [Example 69, (R)-4-(2-Carboxymethoxy-5-chloro-phenyl)-6,7-dihydro-4H-thiazolo[5,4-c]pyridine-5-carboxylic acid cyclobutylmethyl ester]
5 | 6.5 | O=C(O)COc1ccc(Cl)cc1C1c2scnc2CCN1C(=O)[C@@H]1C[C@H]1c1ccccc1C(F)(F)F (mixture of isomers) [Example 23, (±)-(4-Chloro-2-{trans-5-[2-(2-trifluoromethyl-phenyl)-cyclopropanecarbonyl]-4,5,6,7-tetrahydro-thiazolo[5,4-c]pyridin-4-yl}-phenoxy)-acetic acid]
6 | 130 | O=C(O)COc1ccc(Cl)cc1C1c2scnc2CCN1C(=O)CC1(c2ccccc2)CC1 (racemic) [Example 37, (±)-(4-Chloro-2-{5-[2-(1-phenyl-cyclopropyl)-acetyl]-4,5,6,7-tetrahydro-thiazolo[5,4-c]pyridin-4-yl}-phenoxy)-acetic acid]
7 | 6.2 | Cc1nc2c(s1)C(c1cc(Cl)ccc1OCC(=O)O)N(C(=O)OCc1ccccc1)CC2 (racemic) [Example 15, (±)-4-(2-Carboxymethoxy-5-chloro-phenyl)-2-methyl-6,7-dihydro-4H-thiazolo[5,4-c]pyridine-5-carboxylic acid benzyl ester]
8 | 462 | O=C(O)COc1ccc(Cl)cc1[C@@H]1c2scnc2CCN1C(=O)[C@H]1C[C@@H]1c1ccc(F)cc1 [Example 9, (4-Chloro-2-{(R)-5-[(1S,2S)-2-(4-fluoro-phenyl)-cyclopropanecarbonyl]-4,5,6,7-tetrahydro-thiazolo[5,4-c]pyridin-4-yl}-phenoxy)-acetic acid]
9 | 5.7 | O=C(O)COc1ccc(Cl)cc1C1c2scnc2CCN1C(=O)NCCc1ccccc1 (racemic) [Example 107, (±)-[4-Chloro-2-(5-phenethylcarbamoyl-4,5,6,7-tetrahydro-thiazolo[5,4-c]pyridin-4-yl)-phenoxy]-acetic acid]
10 | 17.8 | CC(C)COC(=O)N1CCc2ncsc2C1c1cc(Cl)ccc1OCC(=O)O (racemic) [Example 98, (±)-4-(2-Carboxymethoxy-5-chloro-phenyl)-6,7-dihydro-4H-thiazolo[5,4-c]pyridine-5-carboxylic acid isobutyl ester]
11 | 6.5 | Cc1ccccc1[C@@H]1C[C@H]1C(=O)N1CCc2ncsc2C1c1cc(Cl)ccc1OCC(=O)O (mixture of isomers) [Example 25, (±)-{4-Chloro-2-[trans-5-(2-o-tolyl-cyclopropanecarbonyl)-4,5,6,7-tetrahydro-thiazolo[5,4-c]pyridin-4-yl]-phenoxy}-acetic acid]
12 | 655 | Cc1nc2c(s1)[C@H](c1cc(Cl)ccc1OCC(=O)O)N(C(=O)OCc1ccccc1)CC2 [Example 18, (S)-4-(2-Carboxymethoxy-5-chloro-phenyl)-2-methyl-6,7-dihydro-4H-thiazolo[5,4-c]pyridine-5-carboxylic acid benzyl ester]
13 | 3.7 | CCn1nc(C)cc1CCOC(=O)N1CCc2ncsc2C1c1cc(Cl)ccc1OCC(=O)O (racemic) [Example 91, (±)-4-(2-Carboxymethoxy-5-chloro-phenyl)-6,7-dihydro-4H-thiazolo[5,4-c]pyridine-5-carboxylic acid 2-(2-ethyl-5-methyl-2H-pyrazol-3-yl)-ethyl ester]
14 | 4.8 | COC(C)(C)CCOC(=O)N1CCc2ncsc2[C@H]1c1cc(Cl)ccc1OCC(=O)O [Example 62, (R)-4-(2-Carboxymethoxy-5-chloro-phenyl)-6,7-dihydro-4H-thiazolo[5,4-c]pyridine-5-carboxylic acid 3-methoxy-3-methyl-butyl ester]
15 | 87.4 | O=C(O)COc1ccc(Cl)cc1C1c2scnc2CCN1C(=O)COc1ccccc1 (racemic) [Example 34, (±)-{4-Chloro-2-[5-(2-phenoxy-acetyl)-4,5,6,7-tetrahydro-thiazolo[5,4-c]pyridin-4-yl]-phenoxy}-acetic acid]
16 | 219 | Cc1[nH]c2ccccc2c1CCC(=O)N1CCc2ncsc2C1c1cc(Cl)ccc1OCC(=O)O (racemic) [Example 27, (±)-(4-Chloro-2-{5-[3-(2-methyl-1H-indol-3-yl)-propionyl]-4,5,6,7-tetrahydro-thiazolo[5,4-c]pyridin-4-yl}-phenoxy)-acetic acid]
17 | 1.3 | O=C(O)COc1ccc(Cl)cc1C1c2scnc2CCN1C(=O)OCc1cc(F)ccc1F (racemic) [Example 93, (±)-4-(2-Carboxymethoxy-5-chloro-phenyl)-6,7-dihydro-4H-thiazolo[5,4-c]pyridine-5-carboxylic acid 2,5-difluoro-benzyl ester]
18 | 1.5 | Cc1nc2c(s1)[C@@H](c1cc(Cl)ccc1OCC(=O)O)N(C(=O)[C@@H]1C[C@H]1c1ccccc1)CC2 [Example 10, {4-Chloro-2-[(R)-2-methyl-5-((1R,2R)-2-phenyl-cyclopropanecarbonyl)-4,5,6,7-tetrahydro-thiazolo[5,4-c]pyridin-4-yl]-phenoxy}-acetic acid]
19 | 41.2 | COc1ccc(/C=C/C(=O)N2CCc3ncsc3C2c2cc(Cl)ccc2OCC(=O)O)cc1 (racemic) [Example 54, (±)-(4-Chloro-2-{5-[(E)-3-(4-methoxy-phenyl)-acryloyl]-4,5,6,7-tetrahydro-thiazolo[5,4-c]pyridin-4-yl}-phenoxy)-acetic acid]
20 | 7.3 | O=C(O)COc1ccc(Cl)cc1C1c2scnc2CCN1C(=O)[C@@H]1C[C@H]1c1ccccc1Cl (mixture of isomers) [Example 24, (±)-(4-Chloro-2-{trans-5-[2-(2-chloro-phenyl)-cyclopropanecarbonyl]-4,5,6,7-tetrahydro-thiazolo[5,4-c]pyridin-4-yl}-phenoxy)-acetic acid]
21 | 17.1 | O=C(O)COc1ccc(Cl)cc1C1c2scnc2CCN1C(=O)OCc1ccc(Cl)cc1Cl (racemic) [Example 94, (±)-4-(2-Carboxymethoxy-5-chloro-phenyl)-6,7-dihydro-4H-thiazolo[5,4-c]pyridine-5-carboxylic acid 2,4-dichloro-benzyl ester]
22 | 950 | CC(C)(C)CC(=O)N1CCc2ncsc2C1c1cc(Cl)ccc1OCC(=O)O (racemic) [Example 40, (±)-{4-Chloro-2-[5-(3,3-dimethyl-butyryl)-4,5,6,7-tetrahydro-thiazolo[5,4-c]pyridin-4-yl]-phenoxy}-acetic acid]
23 | 3 | O=C(O)COc1ccc(Cl)cc1C1c2scnc2CCN1C(=O)OCc1ccccc1F (racemic) [Example 79, (±)-4-(2-Carboxymethoxy-5-chloro-phenyl)-6,7-dihydro-4H-thiazolo[5,4-c]pyridine-5-carboxylic acid 2-fluoro-benzyl ester]
24 | 9.7 | O=C(O)COc1ccc(Cl)cc1C1c2scnc2CCN1C(=O)CCCc1ccc(F)cc1 (racemic) [Example 51, (±)-(4-Chloro-2-{5-[4-(4-fluoro-phenyl)-butyryl]-4,5,6,7-tetrahydro-thiazolo[5,4-c]pyridin-4-yl}-phenoxy)-acetic acid]
25 | 12.2 | C[C@H](CC(=O)N1CCc2ncsc2C1c1cc(Cl)ccc1OCC(=O)O)c1ccccc1 (mixture of isomers) [Example 38, (±)-{4-Chloro-2-[5-((R)-3-phenyl-butyryl)-4,5,6,7-tetrahydro-thiazolo[5,4-c]pyridin-4-yl]-phenoxy}-acetic acid]
26 | 9.4 | O=C(O)COc1ccc(Cl)cc1C1c2scnc2CCN1C(=O)NCc1ccccc1F (racemic) [Example 1, (±)-{4-Chloro-2-[5-(2-fluoro-benzylcarbamoyl)-4,5,6,7-tetrahydro-thiazolo[5,4-c]pyridin-4-yl]-phenoxy}-acetic acid]
27 | 73 | O=C(O)COc1ccc(Cl)cc1C1c2scnc2CCN1C(=O)CC1CCCCC1 (racemic) [Example 48, (±)-{4-Chloro-2-[5-(2-cyclohexyl-acetyl)-4,5,6,7-tetrahydro-thiazolo[5,4-c]pyridin-4-yl]-phenoxy}-acetic acid]
28 | 491 | O=C(O)COc1ccc(Cl)cc1C1c2sc(NC(=O)C3CC3)nc2CCN1C(=O)OCc1ccccc1 (racemic) [Example 115, (±)-4-(2-Carboxymethoxy-5-chloro-phenyl)-2-(cyclopropanecarbonyl-amino)-6,7-dihydro-4H-thiazolo[5,4-c]pyridine-5-carboxylic acid benzyl ester]
